Data reported in patent US4217268A, “Synthesis of peptides” (priority 1978, dated 1980).
Bridge positions count the residues as written; N and C are the ends. Peptide text beside a SMILES is read from it.

Assay: Calcitonin potency assay of the purified product (MRC units per mg)
Conditions: purified freeze-dried product of Example 1

CC(C)C[C@H](NC(=O)[C@H](CCCCN)NC(=O)CNC(=O)[C@H](CC(C)C)NC(=O)[C@@H](NC(=O)[C@@H]1CSSC[C@H](N)C(=O)N[C@@H](CC(N)=O)C(=O)N[C@@H](CC(C)C)C(=O)N[C@@H](CO)C(=O)N[C@@H]([C@@H](C)O)C(=O)N1)C(C)C)C(=O)N[C@@H](CO)C(=O)N[C@@H](CCC(N)=O)C(=O)N[C@@H](CCC(=O)O)C(=O)N[C@@H](CC(C)C)C(=O)N[C@@H](Cc1c[nH]cn1)C(=O)N[C@@H](CCCCN)C(=O)N[C@@H](CC(C)C)C(=O)N[C@@H](CCC(N)=O)C(=O)N[C@H](C(=O)N[C@@H](Cc1ccc(O)cc1)C(=O)N1CCC[C@H]1C(=O)N[C@@H](CCCNC(=N)N)C(=O)N[C@H](C(=O)N[C@@H](CC(N)=O)C(=O)N[C@H](C(=O)NCC(=O)N[C@@H](CO)C(=O)NCC(=O)N[C@H](C(=O)N1CCC[C@H]1C(N)=O)[C@@H](C)O)[C@@H](C)O)[C@@H](C)O)[C@@H](C)O [des-Ser^2-SCT, des-ser^2 -salmon calcitonin] (H-CNLSTCVLGKLSQELHKLQTYPRTNTGSGTP-NH2; disulfide 1-6)
biological potency (assayed MRC units per mg): 5600 MRC units per mg
